Data on two molecules can be found in patent US7091026B2, “Artificial endonuclease” (University of Iowa Research Foundation, priority 2001, dated 2006).

Where no end group is shown, it is not given here.

In assay [1] the test system is supercoiled pBR322 plasmid DNA. Kind of assay: DNA gel shift assay (agarose gel electrophoresis). To be noted: 5–25 μM ligand, in words. It counts as binding. On the procedure: DNA Gel Shift Assays. The affinity of EuP3, EuP2, and each free peptide for supercoiled plasmid DNA was examined by agarose gel electrophoresis. Plasmid (pBR322, New England Biolabs, Inc.) was incubated for 15 minutes at room temperature with increasing concentrations of each ligand (5–25 μM), prior to the addition of loading dye. Each lane contained 1 μg plasmid (50 μM base pairs) in 10 mM Tris buffer at pH 8.0.
For orientation: A gel shift assay detects complexes by their altered migration in electrophoresis.

The target of assay [2] is P4a (34-residue synthetic chimeric peptide: alpha2 and alpha3 of engrailed, minus the last turn of alpha2 and the beta-turn, with calmodulin loop I). Nature of the assay: measured dissociation constant, method not stated; self-association of the Eu-bound peptide.

For `[Cl][Eu]([Cl])[Cl]` [EuCl3], the “gel shift / affinity for supercoiled plasmid DNA” value is recorded as “not” in assay [1] and “not seen” in assay [1] (listed as free metal). In the case of TERRRFDKDGNGYISAAELRHVKIWFQNKRAKIK (also: also used as Eu(III)-bound form (EuP4a)), the Kdim (dimerization constant) in assay [2] is more than 300 µM.
